Reference: paper PMC12264554, “Application of preclinical absorption, distribution, metabolism, elimination in vitro techniques for the characterization and compound library optimization of novel antibiotic gallium salophen” (Drug Metabolism and Disposition, 2025)
Like-named read-outs stand apart in the source and are kept apart here.

How the values were obtained:
[1] = calculated B/P, cited from earlier work
HasA = HasA (Pseudomonas aeruginosa, UniProt G3XD33); test: Kd determination by fluorescence quenching of apo-HasAp; details: read-out: HasA Kd; apo-HasAp 1 μM, 20 mM sodium phosphate pH 7.4, 25 °C, one-site binding fit
Sequence of HasA (G3XD33 entry or part of it): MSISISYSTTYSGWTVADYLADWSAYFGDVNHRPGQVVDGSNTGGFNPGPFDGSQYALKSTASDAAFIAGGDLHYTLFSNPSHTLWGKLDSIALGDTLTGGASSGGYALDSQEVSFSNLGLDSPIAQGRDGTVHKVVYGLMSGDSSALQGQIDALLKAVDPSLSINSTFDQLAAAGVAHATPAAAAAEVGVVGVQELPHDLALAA
Procedure: Wild-type, full-length HasAp was prepared from freshly transformed Escherichia coli BL21(DE3) competent cells as previously described in 4 L of M9 media. Cell pellets were resuspended and lysed with an LM-20 microfluidizer at 18,000 psi. Lysate was clarified by centrifugation and applied to a Q-Sepharose column. HasAp was eluted over a gradient from 20 to 600 mM NaCl in 20 mM Tris-HCl (pH 7.5), and desired fractions determined by SDS-PAGE were pooled. Apo-HasAp was further purified on a Butyl Sepharose Fast Flow column equilibrated with 50 mM sodium phosphate buffer with 0.7 M ammonium sulfate (pH 7.0). Holo-HasAp and other proteins eluted within 2–3 bed volumes of 50 mM sodium phosphate containing 0.5 M ammonium sulfate. Apo-HasAp was then eluted with a linear gradient of sodium phosphate buffer (50–20 mM) containing ammonium sulfate (0.5–0 M). Fractions were analyzed again by SDS-PAGE, and the apo-HasAp was pooled, concentrated (Amicon stirred cell with Ultracel 10 kDa filter), and exchanged into 20 mM sodium phosphate buffer.
Binding affinities were determined using a BioTek Synergy H1 microplate reader in a black 96-well plate. Compounds were solvated in H2O in serial dilutions (100–0.39 μM). One micromolar solution of apo-HasAp 20 mM sodium phosphate buffer (pH 7.4, 25 °C) was titrated into the ligand of interest. Emission spectra were recorded (300–500 nm) after excitation at 280 nm. The decrease in maximum emission was plotted against the ligand concentration (accounting for dilution) and fit to one-site binding using GraphPad Prism v10.

[2] = Experimental LogP by reverse-phase HPLC method; format: physicochemical; details: extrapolated log kw
Description: LogP was experimentally determined using previously published reverse-phase high-performance liquid chromatography method, and this workflow was adapted using instrumentation described in the previous LC-MS/MS analysis section ([Coutinho et al, 2023]). Briefly, analogs were eluted using isocratic flow with an increasing percentage of organic solvent from 55% to 90% in increments of 5%. The change in the log of the retention factor, log k, was plotted against the fraction of organic solvent. This allowed for extrapolation to the y-intercept, which is when the fraction of organic in the system is zero, or log kw. The same workflow was applied to known compounds with a published logP value to establish a relationship between logP and log kw. This ratio was used to calculate the experimental logP from the log kw of the test compounds. The in silico prediction of logP values was obtained using an online calculator by Molinspiration Cheminformatics (molinspiration.com).

Caco-2 cells = test: Caco-2 permeability screening; format: in vitro ADME; details: 20 μM, 30 and 60 min, average ± SEM
Procedure: (§1) Caco-2 cells were received from American Type Culture Collection and certified mycoplasma free. Cells were seeded on transwell plates (CoStar, growth area 0.33 cm^2/well, polycarbonate membrane, 0.33 μm pore size) between passage 20 and 27 and then analyzed between 21 and 25 days after wells were seeded to ensure enterocyte-like differentiation. Before assessing permeability, cells were washed once with Hank’s Balanced Salt Solution buffer, pH 7.4, and then incubated at 37 °C for 30 minutes. Transepithelial electrical resistance (TEER) was measured after equilibration before the experiment using an epithelial volt-ohmmeter (EVOM, World Precision Instruments), and cells were used if TEER > 250 Ω × cm^2. Cells were dosed to measure permeability from basolateral and apical sides at a concentration of 20 μM of test compound and 50 μM of Lucifer yellow. Lucifer yellow was used as a “zero permeability” marker to monitor the integrity of cell barrier. Samples were taken at 0 and 60 minutes from the donor side, and samples were taken at 30 and 60 minutes from the receiver side; media was replenished after the 30-minute sample was taken from both chambers. A calibration curve was prepared by serial dilution using the dosing solution in a 1:5 dilution. […] Samples were prepared for LC-MS/MS analysis by taking 100 μL of sample, adding 1 μM internal standard (GaSal-4 or GaSal-5), and crashing with 400 μL of methanol. Samples were centrifuged at 3000 rpm at 4 °C for 30 minutes, 200 μL of supernatant was transferred to a new plate, and 100 μL of water was added to each sample. Samples were vortexed and analyzed by LC-MS/MS as described earlier. […] To preliminarily evaluate organic cation transporter 1 (OCT1) or P-glycoprotein (P-gp)-dependent transport, transport studies were conducted with and without a 1 μM “inhibitor cocktail” alongside GaSal. […] The Papp for basolateral to apical, Papp apical to basolateral, and efflux ratio were reported for each compound. In order to calculate Papp, the concentration in the sampled time point was determined from the calibration curve and then converted to μg based on the volume of the chamber (0.2 mL for apical, 1.0 mL for basolateral). […] The calculation of Papp was determined using eq. […] Data are presented as the average ± SEM for each compound analyzed as n = 3 on 2 different days with 2 different cell line passages, for n = 6 total. GaSal is n = 3 on 3 different cell line passages since this was used as a test compound for the inhibition cocktail experiments.

[3] = Caco-2 permeability screening; format: in vitro ADME; details: for Papp A→B / Papp B→A / efflux ratio at 20 µM: Caco-2, 20 μM; for Papp A→B / Papp B→A: 30 and 60 min, average ± SEM; for Papp A→B: read-out: Papp apical to basolateral; for Papp B→A: read-out: Papp basolateral to apical; for Papp: Caco-2, ranked by Papp against control drugs, read-out: Permeability ranking; for efflux ratio at 20 µM: human, read-out: Efflux ratio B to A/A to B
Procedure: as §1

[4] = RBC/PL partitioning equilibrium in whole blood; details: 2 hours, LC-MS/MS (ICP-MS for Ga^3+); for K2EDTA KRBC/PL: pooled K2EDTA whole blood; for Heparin KRBC/PL: pooled sodium heparin whole blood
Procedure: The mixtures were digested at 80 °C for 4 hours and further diluted to a concentration of 6% nitric acid. Gallium (Ga^71) in whole blood, PL, and RBC samples were quantified using an Agilent 7700x ICP-MS instrument (Agilent Technologies). Metal levels were detected using an Octopole Reaction System in He mode. Other ICP-MS parameters include an radio frequency power of 1500 W, on octupole radio frequency of 190 V, an octapole bias of –18 V, a helium gas flow of 4.3 mL/min, and an argon flow of 0.99 L/min. Samples were loaded through a 7700X peristaltic (with a speed of 0.1 rps) and a MicroMist nebulizer. A standard calibration curve was used to derive metal concentrations. The calibration standards from 0–250 ppb were prepared in 6% nitric acid using atomic absorption standards (Sigma). Data analysis and extraction were performed using Agilent’s MassHunter software version 5.1, specifically version D.01.01.
All LC-MS/MS grade solvents were purchased from ThermoFisher. Ammonium bicarbonate was purchased from Sigma Aldrich. Analysis was performed on a Waters I-Class ultra-performance liquid chromatography system connected with a Waters Xevo TQ-XS mass spectrometer. Ten millimolar ammonium bicarbonate, pH 9.4 was used for mobile phase A, and 100% methanol was used for mobile phase B. The column flow rate was set at 0.400 mL/min. Chromatographic separation was performed with a BEH C18 (2.1 × 50 mm, 1.7 μm) column (Waters). […] The total run time was 4 minutes. The column temperature was set to 60 °C, and the autosampler temperature was set to 15 °C. Washing parameters were 800 μL of weak needle wash (acetonitrile [ACN]:Water/50:50) and 1000 μL of strong needle wash (methanol:ACN:2-propanol:formic acid/30:30:40:0.5) after every injection. Transitions used to monitor all drugs in the study are shown in Supplemental Table 1.
Whole blood (either potassium EDTA [K2EDTA] or sodium heparin) was preincubated at 37 °C for 30 minutes before spiking with the analyte. GaSal-5 was made at a stock concentration of 100 μg/mL in water and then spiked at a high concentration (1 μg/mL) and low concentration (100 ng/mL) to determine whether equilibrium was concentration dependent. Samples were then aliquoted and stored in a water bath at 37 °C for 1, 2, 3, 4, and 8 hours or harvested immediately. PL was harvested from samples by centrifuging at 3000 rpm at 4 °C for 10 minutes. PL was transferred to a new tube and considered the PL fraction, whereas the rest of the matrix was considered the RBC fraction. Samples were then either analyzed by LC-MS/MS or ICP-MS. […] For selectivity lot analysis, whole blood from 3 male and 3 female donors were incubated for 2 hours and then analyzed with LC-MS/MS and ICP-MS at a single concentration of 1 μg/mL. Data are presented as average ± SEM, n = 3 per sample, per concentration. Significance was determined by using a paired t test for ICP-MS and LC-MS/MS data (the same sample, different method) or a 2-tailed Student’s t test for different anticoagulants.

[As] [Arsenic]
KRBC/PL (B/P ratio) ([1]; ref (Cao et al., 2023)): 1.46

[Cd] [Cadmium]
KRBC/PL (B/P ratio) ([1]; ref (Cao et al., 2023)): 4.28

[Cr] [Chromium]
KRBC/PL (B/P ratio) ([1]; ref (Bonde & Christensen, 1991)): 1-3

C[N+](C)(C)CCOc1ccc(/C=N/c2ccccc2/N=C/c2ccc(OCC[N+](C)(C)C)cc2O)c(O)c1.[Ga+3] [GaSal-1]
Kd (HasA): 2.5 ± 1.2 µM

CN(C)CCOc1ccc(C=Nc2ccccc2N=Cc2ccc(OCCN(C)C)cc2O)c(O)c1.[Ga+3] [GaSal-2]
Kd (HasA): 1.2 ± 0.3 µM | logP [2]: 3.7 | Papp apical to basolateral (Caco-2 cells): Undetected | Papp basolateral to apical (Caco-2 cells): Undetected

C/C(=N\c1ccccc1/N=C/c1ccc(OCC[N+](C)(C)C)cc1O)c1ccccc1O.[Ga+3] [GaSal-6]
Kd (HasA): 4 ± 2.8 µM

CC(=Nc1ccccc1N=Cc1ccc(OCCN(C)C)cc1O)c1ccccc1O.[Ga+3] [GaSal-7]
Kd (HasA): 5 ± 0.9 µM | logP [2]: 3.27 | Papp apical to basolateral (Caco-2 cells): Undetected | Papp basolateral to apical (Caco-2 cells): Undetected

CC(=Nc1ccccc1N=Cc1ccc(OCCN2CCOCC2)cc1O)c1ccccc1O.[Ga+3] [GaSal-8]
Kd (HasA): 5.2 ± 0.4 µM | logP [2]: 4.11 | Papp A→B [3]: < 0.01 ×10⁻⁶ cm/s | Papp B→A [3]: 5.75 ± 0.37 ×10⁻⁶ cm/s | Papp [3]: < 1.12 ×10⁻⁶ cm/s | efflux ratio at 20 µM [3]: > 5.75 | K2EDTA KRBC/PL ([4]; 0.1 μg/mL): 0.12 ± 0.09 | Heparin KRBC/PL ([4]; 0.1 μg/mL): 33.8 ± 5.7 | K2EDTA KRBC/PL ([4]; 1 μg/mL): 0.10 ± 0.05 | Heparin KRBC/PL ([4]; 1 μg/mL): 37.4 ± 2.6

CC(=Nc1ccccc1N=Cc1ccc(OCCC(=O)O)cc1O)c1ccccc1O.[Ga+3] [GaSal-9]
Kd (HasA): 0.33 ± 0.04 µM | logP [2]: 3.03 | Papp A→B [3]: < 0.01 ×10⁻⁶ cm/s | Papp B→A [3]: 22.5 ± 5.63 ×10⁻⁶ cm/s | Papp [3]: < 1.12 ×10⁻⁶ cm/s | efflux ratio at 20 µM [3]: > 22.5 | K2EDTA KRBC/PL ([4]; 0.1 μg/mL): 820 ± 59 | K2EDTA KRBC/PL ([4]; 1 μg/mL): 13745 ± 3800

COCCOCCOc1ccc(/C=N/c2ccccc2N=C(C)c2ccccc2O)c(O)c1.[Ga+3] [GaSal-10]
Kd (HasA): 3.4 ± 0.3 µM
